The text below walks through data of US9132171B2, “Test of insulin as a drug to reduce restenosis of vessels” (WISCONSIN ALUMNI RESEARCH FOUNDATION, priority 2012, dated 2015).

In assay [1] the test system is rat aortic fibroblasts. In words: Collagen III and I in culture medium of treated rat aortic fibroblasts (direct ELISA, Western blot). As to conditions: CTGF, insulin (1 ug) or both, 72 hours. Format: cell-based. As to the method:
Collagen produced by rat fibroblasts was measured using Western blotting. […] GFP (control) and Smad3-transfected SMCs were starved for 24 hours in 0.5% serum DMEM medium and then treated with TGFbetal (5 ng/ml) for 48 hours. […] Thirty micrograms of proteins from each sample were separated on 10% SDS-PAGE gels. Protein samples were transferred to a polyvinylidene fluoride (PVDF) membrane. Rabbit anti-collagen type III (1:1000) and I (1:1000) (Fitzgerald) and goat-anti Rabbit (1:5000) were used as primary and secondary antibodies respectively to confirm immunoblotting. Conditioned medium was blotted parallel to unconditioned culture medium to rule out the possibility of presence of collagen in the former. Immunoblotting was carried out to visualize collagen I and III in culture medium after treating rat fibroblasts with CTGF (0.1 μg/ml) and IGF-2 (0.3 μg/ml) for 72 hours. These experiments were replicated using insulin in place of IGF-2. ELISA was used to detect the presence of IGF-2 and CTGF in the conditioned medium using the primary antibodies from Abcam® according to manufacturer's instructions. Fitzgerald Collagen I and III primary antibodies were used to visualize changes in collagen production in the fibroblast culture medium following treatment with CTGF and IGF small interfering RNA-(siRNA) transfected conditioned medium for 72 hours. […]
For orientation: ELISA stands for enzyme-linked immunosorbent assay.

For assay [2], the system named is Smad3-expressing smooth muscle cells (SMCs). In words: MTT cell proliferation assay. Format: cell-based, rat. The conditions noted are these: insulin 1 μg/ml, TGF-beta 5 ng/ml, 96 hours. As to the method:
FIG. 7 illustrates a MTT proliferation assay of Smad3-expressing smooth muscle cells (SMCs) at 96 hours after treatment with TGF-beta (5 ng/ml) or TGF beta (5 ng/ml)+Insulin (1 μg/ml).
MTT cell proliferation assay was performed to visualize the effect of insulin on SMC proliferation. Smad3-transfected rat SMCs were stimulated with TGF-beta. Cells were then treated with 1 μg of insulin and the MTT assay was performed following 96 hours of treatment.
To determine whether insulin is sufficient for decreasing TGF-beta and Smad3-stimulated SMC proliferation, an MTT proliferation assay was carried out. Insulin abolished the TGF-beta-stimulated proliferation of Smad3-expressing SMCs (FIG. 7).
Background: Tetrazolium assays rely on reduction of a dye to a coloured formazan, in cell work by metabolically active cells.

In assay [3] the test system is left carotid artery balloon angioplasty. Kind of assay: Balloon injury model with morphometric analysis. Format: in vivo, rat. The conditions noted are these: periadventitial in Pluronic gel, 14 days after injury, relative to non-treated vessels. As to the method:
In vivo studies conformed to the Guide for the Care and Use of Laboratory Animals published by the US National Institute of Health. Approval from the Institutional Animal Care and Use Committee was granted. Male Sprague-Dawley rats underwent angioplasty of the left common carotid artery. Periadventitial Insulin (1 microgram) along with CTGF (100 nanogram) suspended in 200 μL of Pluronic® gel was applied to the adventitial surface of the artery immediately after injury. Control animals were subjected to application of Pluronic® gel only. Fourteen days after injury, carotid was harvested utilizing perfusion fixation at physiological pressure of 100 mmHg.
Paraffin-embedded arteries were cut into 5 μm sections for analysis. Morphometric analysis was carried out on arteries stained with Haematoxilin and Eosin. For each animal, 10 sections were selected for analysis using digital software for Dell PC Computers (ImageJ and Photoshop V.7). The areas encompassed by the lumen surface (luminal area), […], internal elastic lamina-lumen surface (neointimal area), EEL-internal elastic lamina (medial area) and EEL length were measured. For evaluation of remodeling index, the EEL was measured and compared with that of controls. […]

The test system of assay [4] is vessels. As to conditions: in vivo; cited from earlier work.
Assay [5] has as its system IGF-2BP3. Kind of assay: mRNA expression array analysis of TGFbeta/Smad3-treated SMCs. Format: cell-based, mouse. As to conditions: data not shown. From the text:
Cell Culture. Aortic SMCs were isolated from mouse (MOVAS) aortas. Rat aortic fibroblasts were isolated as previously described by Pagano et al., Localization of a constitutively active, phagocyte-like NADPH oxidase in rabbit aortic adventitia: enhancement by angiotensin II, Proc. Natl. Acad. Sci. USA. December 23; 94(26):14483-8 (1997), incorporated herein by reference as if set forth in its entirety, and used to visualize collagen secretion into growth media. These cells were transfected with green fluorescent protein (GFP) and SMAD3 adenoviral vectors expressing Smad3 (AdSmad3) and GFP (AdGFP), constructed as previously described in Ryer, E. et al., Arterioscler Thromb Vasc Biol. 26:780-786, 2006, incorporated herein by reference as if set forth in its entirety. Adenoviral vector expressing GFP was used as a control (AdGFP).
CTGF and IGF-2 are present in the CM derived from SMCs that overexpress Smad3 (FIGS. 2A and B respectively).

For assay [6], the system named is balloon-injured vessel. Kind of assay: Collagen I/III immunostaining of balloon-injured artery after perivascular CTGF. Format: in vivo, rat. The conditions noted are these: CTGF 80 ng in 200 microliters Pluronic gel, 14 days after carotid artery injury. An excerpt: FIG. 5 illustrates collagen subtype induction by CTGF in vivo. Arteries were injured and treated with recombinant CTGF as described in FIG. 2. Arterial sections, harvested at 14 days post-injury, were subsequently immunostained for either Type I (COLI) or Type III collagen (COLIII). (A) Representative tissue sections from solvent-(CTRL) or CTGF-treated arteries (CTGF). Negative controls were established by staining sections without primary antibodies to collagen. 100X (B) Semi-quantification of adventitial COLI or COLIII was carried out, and the effects of CTGF on COLI or COLIII were expressed as fold induction; n=6, *p<0.05 as compared to COLIII. […] FIG. 5B depicts CTGF-mediated differential production of collagens III and I when CTGF was applied around a balloon-injured vessel.

In assay [7] the test system is balloon-injured blood vessels. As to conditions: CTGF applied to balloon-injured vessels; cited from earlier work.

Consider insulin, for which the “Collagen III production in rat aortic fibroblasts” value in assay [1] is recorded as “some increase in collagen III”. Besides, the “TGF-beta-stimulated proliferation of Smad3-expressing SMCs” value in assay [2] is on record as “abolished”. In assay [3], the “Increase in lumen size” value is listed as 29.24% and the Neo-intimal growth result is “decreased neo-intimal growth”. Also, in assay [4], the “Cell migration into the intima” value is on record as “inhibit cell migration into the intima”, the “Intima cell proliferation or apoptosis” value was “does not decrease” and the Re-endothelialization in vessels entry is “increase re-endothelialization”.
On to “TGFbeta: TGF-beta (5 ng/ml) used to treat Smad3-transfected SMCs”, for which the IGF-2BP3 increase in assay [5] (6 hours treatment) turned out to be 2.8 folds; in assay [5] (48 hours treatment), 2.4 folds.

B1: Connective Tissue Growth Factor (protein, UniProt P29279 27-349, looked up)
CCN family member 2: QNCSGPCRCPDEPAPRCPAGVSLVLDGCGCCRVCAKQLGELCTERDPCDPHKGLFCHFGSPANRKIGVCTAKDGAPCIFGGTVYRSGESFQSSCKYQCTCLDGAVGCMPLCSMDVRLPSPDCPFPRRVKLPGKCCEEWVCDEPKDQTVVGPALAAYRLEDTFGPDPTMIRANCLVQTTEWSACSKTCGMGISTRVTNDNASCRLEKQSRLCMVRPCEADLEENIKKGKKCIRTPKISKPIKFELSGCTSMKTYRAKFCGVCTDGRCCTPHRTTTLPVEFKCPDGEVMKKNMMFIKTCACHYNCPGDNDIFESLYYRKMYGDMA
notes: soluble factor secreted by blood vessel adventitial cells
Take B1: the “Collagen III production in rat aortic fibroblasts” value in assay [1] is listed as “some increase in collagen III”. Besides, the “Adventitial collagen III versus collagen I” value in assay [6] is reported as “collagen III increased significantly more as compared to collagen I”. For the same molecule, the Lumen remodeling entry in assay [7] is reported as “expansively remodeled”.
